Literature values as cited in patent US20240197636A1, “TISSUE-SPECIFIC NUCLEIC ACID DELIVERY BY MIXED CATIONIC LIPID PARTICLES” (OMEGA THERAPEUTICS, INC., priority 2021, published 2024).

pKa: 6.4
SMILES: CCCCC/C=C\C/C=C\CCCCCCCCC(CCCCCCCC/C=C\C/C=C\CCCCC)OC(=O)CCCN(C)C [MC3, (6Z,9Z,28Z,31Z)-heptatriaconta-6,9,28,31-tetraen-19-yl 4-(dimethylamino) butanoate]
